{"source": "paper PMC10144242", "about": "“Design, Synthesis, In Vitro, and In Silico Insights of 5-(Substituted benzylidene)-2-phenylthiazol-4(5H)-one Derivatives: A Novel Class of Anti-Melanogenic Compounds” (Molecules, 2023)", "key": {"[1]": {"assay": "ABTS cation radical scavenging assay", "conditions": "100 µM, 2 min in the dark", "description": "In addition, it has been reported that antioxidants that scavenge radicals may inhibit excess melanogenesis, because melanogenesis can be triggered by various radicals. Therefore, the 2,2′-azino-bis(3-ethylbenzothiazoline-6-sulfonic acid) (ABTS) cation radical scavenging abilities of 14 (Z)-BPT derivatives were studied using Trolox as a positive control. The ABTS cation radical is formed by transferring one electron of ABTS to K2S2O8 (potassium persulfate). To obtain an ABTS cation radical solution, a 7.4 mM ABTS solution was mixed with 2.6 mM potassium persulfate and kept in the dark at room temperature for 24 h. After adjusting the absorbance of the ABTS cation radical solution to 0.700 ± 0.03 at 732 nm, the ABTS cation radical solution was mixed with test samples (1–14 and Trolox) to a final concentration of 100 µM and kept for 2 min in the dark. The radical scavenging effects were assessed based on the absorbance measured at 732 nm.\nThe antioxidant properties of (Z)-BPT derivatives 1–14 were assessed using the ABTS cation-free radical scavenging assay, as previously described. […] Then, methanol was used to dilute the ABTS cation-free radical solution to an absorbance of 0.70 ± 0.02 at 734 nm. […] The absorbance of each well was measured at 734 nm using a VersaMax ™ microplate reader (Molecular Devices, Sunnyvale, CA, USA). […]"}, "[2]": {"assay": "In vitro ROS scavenging assay (SIN-1, esterase, DCFH-DA)", "conditions": "40 µM, SIN-1-generated ROS", "experimental": "DCFH-DA, esterase, and SIN-1 were used to measure the scavenging activity of in vitro ROS generated by SIN-1. DCFH-DA reacts with esterase to generate DCFH, which in turn, reacts with the in vitro ROS generated by SIN-1 to produce DCF. To evaluate the in vitro ROS scavenging effects of the (Z)-BPT derivatives, a concentration of 40 µM was used. […] Three derivatives, 2, 3, and 14, exerted strong scavenging abilities against both intracellular ROS and in vitro ROS.\nThe ROS scavenging abilities of (Z)-BPT derivatives 1–14 and Trolox were assessed in accordance with methods previously reported by Lebel and Bondy. Briefly, 50 mM phosphate buffer (pH 7.4) was dissolved with esterase (6 units/mL) and 1.25 mM DCFH-DA (2′,7′-dichlorodihydrofluorescein diacetate) from Molecular Probes (Eugene, OR, USA), maintained at 37 °C for 30 min, and kept on ice in the dark until use. […] Using a microplate reader (Berthold Advances GmbH & Co., Bad Wildbad, Germany), the fluorescence intensities of 2′,7′-dichlorofluorescein (DCF or oxidized DCFH) were examined at excitation and emission wavelengths of 485 nm and 535 nm, respectively. […]\nFigure 11 The scavenging effects of (Z)-BPT derivatives 1–14 on (A) intracellular ROS and (B) in vitro ROS. ROS levels were assessed using an assay with SIN-1 (an ROS generator) and DCFH-DA (an ROS-sensitive fluorescence probe). […]"}}, "data": [{"smiles": "Cc1c(C)c2c(c(C)c1O)CCC(C)(C(=O)O)O2", "note": "(centres unmarked) [Trolox]", "values": [{"measurement": "ABTS cation radical scavenging (inhibition)", "setting": "[1]", "value": 81, "unit": "%"}, {"measurement": "in vitro ROS scavenging activity", "setting": "[2]", "value": "significantly decreased the enhanced ROS levels"}]}]}
